Tests used:
[1] = target: T1, endogenous wild-type H-Ras protein (Mus musculus, UniProt Q61411); test: Degradation of endogenous wild-type H-Ras protein in mouse pancreas and colorectal tissue, Western blot analysis; assay type: in vivo; settings: C57BL/6J mice, intraperitoneal, 48 hours, FIG. 8
T1 construct: an endogenous wild-type K-Ras protein and wild-type H-Ras protein; from tissue; host or cells: mouse pancreas and colon
Procedure: In Example 9, in a mouse individual to which TUS-007 had been administered, the degradation (knockdown) of an endogenous wild-type K-Ras protein and wild-type H-Ras protein was evaluated by Western blot analysis.
TUS-007 was dissolved in DMSO, and then dissolved in corn oil so that the concentration of DMSO was 10 vol %, and then intraperitoneally administered to C57BL/6J wild-type mice (8 to 9 weeks old, male) (CLEA Japan, Inc.) in an amount of 40 mg/kg body weight or 80 mg/kg body weight (n=3 to 4). Furthermore, in addition to a group in which TUS-007 was administered, a group in which Ras-SOS had been administered in a dose of 80 mg/kg body weight was prepared. As a control, an injection carrier (corn oil containing 10 vol % DMSO) was used. The mice were kept under an environment of ad libitum access to food and water. The mice were dissected under deep anesthesia 48 hours after administration. The pancreas and colon were excised, and flash frozen in liquid nitrogen.
The frozen pancreas and colon were each triturated, and then TKM tissue lysis buffer (50 mM triethanolamine (pH 7.8), 50 mM KCl, 5 mM MgCl2, 0.25 M sucrose, 1 mM PMSF, Protein Inhibitors Cocktail-EDTA free (Nacalai Tesque, Inc.), 1 mM DTT, and a recombinant RNase inhibitor (0.2 U/μL, Takara Bio) were added, and subjected to centrifugation (at 13800 rpm×30 minutes, 4° C.), and the supernatants (pancreatic tissue extract and colorectal tissue extract) were collected. The concentration of the extracted proteins was quantified with a spectrophotometer.
Each tissue extract collected was subjected to Western blot analysis. […]
After electrophoresis, proteins were transferred to a PVDF membrane (Immobion™-P, Millipore) under conditions of 200 mA and 90 minutes using a tank-type blotting device and a transfer buffer (25 mM Tris-HCl, 195 mM glycine, 0.01% SDS, 15% methanol). […] Subsequently, the membrane was treated with a chemiluminescence reagent Immobilon™ Western (Millipore), and then chemiluminescence was detected using a lumino image analyzer LAS-3000 (FUJIFILM Corporation).

[2] = target: T2, SOS1 protein (Homo sapiens, UniProt Q07889); test: Amount of SOS1 protein in HeLa cells, Western blot analysis; assay type: cell-based; settings: 48 hours after addition, vs control (DMSO), FIG. 5
T2 construct: endogenous in cells; host or cells: HeLa
T2 sequence (Q07889 1-1333): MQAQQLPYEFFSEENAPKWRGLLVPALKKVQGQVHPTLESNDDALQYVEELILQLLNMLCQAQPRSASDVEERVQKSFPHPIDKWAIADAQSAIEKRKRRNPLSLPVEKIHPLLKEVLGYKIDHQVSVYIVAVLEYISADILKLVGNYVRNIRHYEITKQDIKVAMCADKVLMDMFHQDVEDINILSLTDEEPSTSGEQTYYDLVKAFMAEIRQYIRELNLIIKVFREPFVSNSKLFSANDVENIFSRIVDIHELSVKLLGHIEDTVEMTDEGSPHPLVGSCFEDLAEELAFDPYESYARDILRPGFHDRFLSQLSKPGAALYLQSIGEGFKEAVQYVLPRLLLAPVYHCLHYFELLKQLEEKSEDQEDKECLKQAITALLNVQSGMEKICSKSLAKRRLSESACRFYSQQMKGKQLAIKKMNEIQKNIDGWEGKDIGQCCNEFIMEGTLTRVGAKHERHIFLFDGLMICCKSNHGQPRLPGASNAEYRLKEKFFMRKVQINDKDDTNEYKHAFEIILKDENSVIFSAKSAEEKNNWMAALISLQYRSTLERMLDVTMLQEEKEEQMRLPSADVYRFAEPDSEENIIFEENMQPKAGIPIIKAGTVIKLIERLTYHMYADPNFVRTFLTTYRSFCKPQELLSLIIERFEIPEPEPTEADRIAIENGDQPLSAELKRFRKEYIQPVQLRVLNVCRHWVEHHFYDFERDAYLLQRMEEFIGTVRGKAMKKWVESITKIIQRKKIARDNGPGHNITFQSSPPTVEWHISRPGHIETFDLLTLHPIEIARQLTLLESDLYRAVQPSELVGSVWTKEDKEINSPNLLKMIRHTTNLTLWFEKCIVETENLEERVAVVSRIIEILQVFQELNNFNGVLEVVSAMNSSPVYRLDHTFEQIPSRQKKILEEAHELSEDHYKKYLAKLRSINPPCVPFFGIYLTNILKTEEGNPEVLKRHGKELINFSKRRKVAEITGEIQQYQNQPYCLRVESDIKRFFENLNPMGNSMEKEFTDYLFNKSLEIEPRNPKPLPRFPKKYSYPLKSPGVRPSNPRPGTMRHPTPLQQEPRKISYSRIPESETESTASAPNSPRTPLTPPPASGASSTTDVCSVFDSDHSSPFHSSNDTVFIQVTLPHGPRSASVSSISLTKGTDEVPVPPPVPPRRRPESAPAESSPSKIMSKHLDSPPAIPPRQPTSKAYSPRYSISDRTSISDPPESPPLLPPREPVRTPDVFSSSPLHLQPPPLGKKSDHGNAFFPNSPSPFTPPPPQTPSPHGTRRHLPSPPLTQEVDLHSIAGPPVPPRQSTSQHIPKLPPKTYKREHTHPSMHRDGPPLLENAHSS

T1 sequence (Q61411 whole entry): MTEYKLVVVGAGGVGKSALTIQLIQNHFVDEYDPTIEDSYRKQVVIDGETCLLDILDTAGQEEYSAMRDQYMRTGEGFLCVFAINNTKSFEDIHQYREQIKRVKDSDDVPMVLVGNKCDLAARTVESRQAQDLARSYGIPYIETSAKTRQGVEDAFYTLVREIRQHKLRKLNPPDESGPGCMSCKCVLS

Structure (SMILES): CCC(C)[C@H](NC(=O)CCCCCCNC(=O)[C@H](CC(C)C)NC(=O)CNC(=O)c1cc(Cl)ccc1Cl)C(=O)Nc1ccc2[nH]c(Cc3c[nH]c4ccccc34)nc2c1 (stereo in doubt) [TUS-007]
- amount of the endogenous wild-type H-Ras protein in the pancreatic tissue (Western blot) ([1]; 40 or 80 mg/kg, pancreatic tissue): remarkably reduced in the pancreatic tissue
- amount of the endogenous wild-type H-Ras protein in mouse tissues (Western blot) ([1]; TUS-007 40 or 80 mg/kg, Ras-SOS 80 mg/kg, pancreas and colon): reduced in a concentration-dependent manner
- amount of the SOS1 protein (Western blot) [2]: the amount of the SOS1 protein was not reduced

Reference: US11052154B2, “Ras protein degradation inducing molecule and pharmaceutical composition” (Tokyo University of Science Foundation, priority 2016, dated 2021)
